Source: patent US20150337013A1, “NOVEL ANTIBACTERIAL AGENTS FOR THE TREATMENT OF GRAM POSITIVE INFECTIONS” (priority 2008, published 2015)
Several values for one entry are separate records, joined by “and”; a condition that tells them apart may be missing. Identical values can stand only once. Like-named read-outs stand apart in the source and are kept apart here.

Columns and labels:
[1] = test system: Staphylococcus aureus SAU.278, Daptomycin resistant mutant (D10); format: cell-based; settings: MHBc with 50 mg/L calcium, 18-20 hours at 37° C.
Protocol: (§1) Compounds according to Formula I were tested for antimicrobial activity against a panel of organisms. Aerobic organisms, Staphylococcus aureus, Enterococcus faecalis and E. faecium, were tested by broth microdilution according to Clinical and Laboratory Standards Institute (CLSI) document M7-A7 (Clinical and Laboratory Standards Institute. Methods for Dilution Antimicrobial Susceptibility Tests for Bacteria that Grow Aerobically; Approved Standard—Seventh Edition. CLSI document M7-A7 [ISBN 1-56238-587-9]. Clinical and Laboratory Standards Institute, 940 West Valley Road, Suite 1400, Wayne, Pa. 19087-1898 USA, 2006) with modifications as described below. Mueller Hinton Broth (MHBc) was supplemented with 50 mg/L calcium (equivalent to human physiological levels of calcium) and assay plates were incubated 18-20 hours at 37° C. with aeration (200 rpm).
(§2) In all cases the final concentration of dimethyl sulfoxide incubated with cells is less than or equal to 1%. For minimum inhibitory concentration (MIC) calculations, 2-fold dilutions of compounds were added to wells of a microtiter plate containing 5×10^5 bacteria in a final volume of 100 μL of media. Following incubation, (18-20 hours at 37° C. with aeration at 200 rpm) growth was confirmed visually by placing plates over a viewing apparatus (stand with a mirror underneath) and then the optical density (OD600) was measured using a SpectraMax 340PC^384 plate reader. Growth was defined as turbidity that could be detected with the naked eye or achieving minimum OD600of 0.1. MIC values (in μg/mL) were defined as the lowest concentration producing no visible turbidity.

[2] = test system: Enterococcus faecalis EFS.312, Daptomycin resistant mutant (EFA); format: cell-based; settings: MHBc with 50 mg/L calcium, 18-20 hours at 37° C.
Protocol: as §1, §2

[3] = test system: Enterococcus faecium EFM.384, Daptomycin resistant mutant (14-A); format: cell-based; settings: MHBc with 50 mg/L calcium, 18-20 hours at 37° C.
Protocol: as §1, §2

[4] = test system: Staphylococcus aureus SAU.399 (ATCC 43300), Methicillin and Oxacillin Resistant; format: cell-based; settings: ATCC 43300
Protocol: as §1, §2

[5] = test system: Enterococcus faecium EFM.14 (ATCC 6569); format: cell-based
Protocol: as §1, §2

[6] = test system: Enterococcus faecalis EFS.201 (ATCC 49452); format: cell-based
Protocol: as §1, §2

[7] = MHBc with 50 mg/L calcium, 18-20 hours at 37° C.

CCCC1CCC(c2ccc(C(=O)N[C@@H](Cc3c[nH]c4ccccc34)C(=O)N[C@H](CC(N)=O)C(=O)N[C@@H](CC(=O)O)C(=O)N[C@@H]3C(=O)NCC(=O)N[C@@H](CCCN)C(=O)N[C@@H](CC(=O)O)C(=O)N[C@H](C)C(=O)N[C@@H](CC(=O)O)C(=O)NCC(=O)N[C@H](CO)C(=O)N[C@@H]([C@H](C)CC(=O)O)C(=O)N[C@@H](CC(=O)c4ccccc4N)C(=O)O[C@@H]3C)cc2)CC1 (single isomer, unassigned) [53 isomer I]
Sa278 MIC [1]: 0.25 µg/mL and 0.5 µg/mL
Efs312 MIC [2]: 2 µg/mL
Efm384 MIC [3]: 2 µg/mL and 1 µg/mL
Sa399 MIC [4]: 0.125 µg/mL
Efm14 MIC ([5]; ATCC 6569): 0.25 µg/mL
C. diff MIC90 (Clostridium difficile): 1 µg/mL

CCCCCCC1CCC(c2ccc(C(=O)N[C@@H](Cc3c[nH]c4ccccc34)C(=O)N[C@H](CC(N)=O)C(=O)N[C@@H](CC(=O)O)C(=O)N[C@@H]3C(=O)NCC(=O)N[C@@H](CCCN)C(=O)N[C@@H](CC(=O)O)C(=O)N[C@H](C)C(=O)N[C@@H](CC(=O)O)C(=O)NCC(=O)N[C@H](CO)C(=O)N[C@@H]([C@H](C)CC(=O)O)C(=O)N[C@@H](CC(=O)c4ccccc4N)C(=O)O[C@@H]3C)cc2)CC1 (single isomer, unassigned) [54 isomer I]
C. diff MIC90 (Clostridium difficile): 4 µg/mL

CCCCCCCC/C=C/CC(=O)N[C@@H](Cc1c[nH]c2ccccc12)C(=O)N[C@H](CC(N)=O)C(=O)N[C@@H](CC(=O)O)C(=O)N[C@@H]1C(=O)NCC(=O)N[C@@H](CCCN)C(=O)N[C@@H](CC(=O)O)C(=O)N[C@H](C)C(=O)N[C@@H](CC(=O)O)C(=O)NCC(=O)N[C@H](CO)C(=O)N[C@@H]([C@H](C)CC(=O)O)C(=O)N[C@@H](CC(=O)c2ccccc2N)C(=O)O[C@@H]1C [Compound 4]
Efs312 MIC [2]: 32 µg/mL and 16 µg/mL
Efm384 MIC [3]: 8 µg/mL and 4 µg/mL

CCCCCCC(CCCC)C(=O)N[C@@H](Cc1c[nH]c2ccccc12)C(=O)N[C@H](CC(N)=O)C(=O)N[C@@H](CC(=O)O)C(=O)N[C@@H]1C(=O)NCC(=O)N[C@@H](CCCN)C(=O)N[C@@H](CC(=O)O)C(=O)N[C@H](C)C(=O)N[C@@H](CC(=O)O)C(=O)NCC(=O)N[C@H](CO)C(=O)N[C@@H]([C@H](C)CC(=O)O)C(=O)N[C@@H](CC(=O)c2ccccc2N)C(=O)O[C@@H]1C (some centres unmarked) [Compound 8]
Efs312 MIC [2]: >32 µg/mL
Efm384 MIC [3]: 32 µg/mL and >32 µg/mL
C. diff MIC90 (Clostridium difficile): 8 µg/mL

CCCCCCC1CCC(C(=O)N[C@@H](Cc2c[nH]c3ccccc23)C(=O)N[C@H](CC(N)=O)C(=O)N[C@@H](CC(=O)O)C(=O)N[C@@H]2C(=O)NCC(=O)N[C@@H](CCCN)C(=O)N[C@@H](CC(=O)O)C(=O)N[C@H](C)C(=O)N[C@@H](CC(=O)O)C(=O)NCC(=O)N[C@H](CO)C(=O)N[C@@H]([C@H](C)CC(=O)O)C(=O)N[C@@H](CC(=O)c3ccccc3N)C(=O)O[C@@H]2C)CC1 (some centres unmarked) [Compound 18]
Sa278 MIC [1]: 4 µg/mL and 2 µg/mL
Efs312 MIC [2]: 32 µg/mL and 16 µg/mL
Efm384 MIC [3]: 8 µg/mL
Sa399 MIC [4]: 1 µg/mL
Efm14 MIC ([5]; ATCC 6569): 2 µg/mL
C. diff MIC90 (Clostridium difficile): 0.5 µg/mL

CCCCCCCC1CCC(C(=O)N[C@@H](Cc2c[nH]c3ccccc23)C(=O)N[C@H](CC(N)=O)C(=O)N[C@@H](CC(=O)O)C(=O)N[C@@H]2C(=O)NCC(=O)N[C@@H](CCCN)C(=O)N[C@@H](CC(=O)O)C(=O)N[C@H](C)C(=O)N[C@@H](CC(=O)O)C(=O)NCC(=O)N[C@H](CO)C(=O)N[C@@H]([C@H](C)CC(=O)O)C(=O)N[C@@H](CC(=O)c3ccccc3N)C(=O)O[C@@H]2C)CC1 (some centres unmarked) [Compound 19]
C. diff MIC90 (Clostridium difficile): 0.250 µg/mL

CC(C)c1ccc(CCCC(=O)N[C@@H](Cc2c[nH]c3ccccc23)C(=O)N[C@H](CC(N)=O)C(=O)N[C@@H](CC(=O)O)C(=O)N[C@@H]2C(=O)NCC(=O)N[C@@H](CCCN)C(=O)N[C@@H](CC(=O)O)C(=O)N[C@H](C)C(=O)N[C@@H](CC(=O)O)C(=O)NCC(=O)N[C@H](CO)C(=O)N[C@@H]([C@H](C)CC(=O)O)C(=O)N[C@@H](CC(=O)c3ccccc3N)C(=O)O[C@@H]2C)cc1 [Compound 30, N-[4-(4-isopropylphenyl)butanoyl]-L-tryptophyl-D-asparaginyl-L-α-aspartyl-L-threonylglycyl-L-ornithyl-L-α-aspartyl-D-alanyl-L-α-aspartylglycyl-D-seryl-(3R)-3-methyl-L-α-glutamyl-(αS)-α,2-diamino-γ-oxobenzenebutanoic acid (13→4)-lactone]
Sa278 MIC [1]: 32 µg/mL
Efs312 MIC [2]: >32 µg/mL
Efm384 MIC [3]: >32 µg/mL
Efs201 MIC ([6]; ATCC 49452): 8 µg/mL
C. diff MIC90 (Clostridium difficile): 8 µg/mL

CCCCCCc1ccc(C(=O)N[C@@H](Cc2c[nH]c3ccccc23)C(=O)N[C@H](CC(N)=O)C(=O)N[C@@H](CC(=O)O)C(=O)N[C@@H]2C(=O)NCC(=O)N[C@@H](CCCN)C(=O)N[C@@H](CC(=O)O)C(=O)N[C@H](C)C(=O)N[C@@H](CC(=O)O)C(=O)NCC(=O)N[C@H](CO)C(=O)N[C@@H]([C@H](C)CC(=O)O)C(=O)N[C@@H](CC(=O)c3ccccc3N)C(=O)O[C@@H]2C)cc1 [Compound 32]
Efs312 MIC [2]: >32 µg/mL and 32 µg/mL

C[C@H](CC(=O)O)[C@@H]1NC(=O)[C@@H](CO)NC(=O)CNC(=O)[C@H](CC(=O)O)NC(=O)[C@@H](C)NC(=O)[C@H](CC(=O)O)NC(=O)[C@H](CCCN)NC(=O)CNC(=O)[C@@H](NC(=O)[C@H](CC(=O)O)NC(=O)[C@@H](CC(N)=O)NC(=O)[C@H](Cc2c[nH]c3ccccc23)NC(=O)CCCCCc2ccccc2)[C@@H](C)OC(=O)[C@H](CC(=O)c2ccccc2N)NC1=O [Compound 46]
Sa278 MIC [1]: >32 µg/mL
Efs312 MIC [2]: >32 µg/mL
Efm384 MIC [3]: >32 µg/mL
Efs201 MIC ([6]; ATCC 49452): >32 µg/mL
Efm14 MIC ([5]; ATCC 6569): >32 µg/mL
C. diff MIC90 (Clostridium difficile): 16 µg/mL

C[C@H](CC(=O)O)[C@@H]1NC(=O)[C@@H](CO)NC(=O)CNC(=O)[C@H](CC(=O)O)NC(=O)[C@@H](C)NC(=O)[C@H](CC(=O)O)NC(=O)[C@H](CCCN)NC(=O)CNC(=O)[C@@H](NC(=O)[C@H](CC(=O)O)NC(=O)[C@@H](CC(N)=O)NC(=O)[C@H](Cc2c[nH]c3ccccc23)NC(=O)CCCCCCc2ccccc2)[C@@H](C)OC(=O)[C@H](CC(=O)c2ccccc2N)NC1=O [Compound 47]
Sa278 MIC [1]: >32 µg/mL
Efs312 MIC [2]: >32 µg/mL
Efm384 MIC [3]: >32 µg/mL
Sa399 MIC [4]: 16 µg/mL
Efm14 MIC ([5]; ATCC 6569): >32 µg/mL
C. diff MIC90 (Clostridium difficile): 8 µg/mL

CCCCCCSc1ccc(-c2csc(C(=O)N[C@@H](Cc3c[nH]c4ccccc34)C(=O)N[C@H](CC(N)=O)C(=O)N[C@@H](CC(=O)O)C(=O)N[C@@H]3C(=O)NCC(=O)N[C@@H](CCCN)C(=O)N[C@@H](CC(=O)O)C(=O)N[C@H](C)C(=O)N[C@@H](CC(=O)O)C(=O)NCC(=O)N[C@H](CO)C(=O)N[C@@H]([C@H](C)CC(=O)O)C(=O)N[C@@H](CC(=O)c4ccccc4N)C(=O)O[C@@H]3C)c2)cc1 [Compound 57]
Sa278 MIC [1]: 2 µg/mL and 4 µg/mL
C. diff MIC90 (Clostridium difficile): 8 µg/mL

CCCCCCOc1ccc(-c2csc(C(=O)N[C@@H](Cc3c[nH]c4ccccc34)C(=O)N[C@H](CC(N)=O)C(=O)N[C@@H](CC(=O)O)C(=O)N[C@@H]3C(=O)NCC(=O)N[C@@H](CCCN)C(=O)N[C@@H](CC(=O)O)C(=O)N[C@H](C)C(=O)N[C@@H](CC(=O)O)C(=O)NCC(=O)N[C@H](CO)C(=O)N[C@@H]([C@H](C)CC(=O)O)C(=O)N[C@@H](CC(=O)c4ccccc4N)C(=O)O[C@@H]3C)c2)cc1 [Compound 58, N-[4-(4-(hexyloxy)phenyl)thiophene-2-carbonyl]-L-tryptophyl-D-asparaginyl-L-α-aspartyl-L-threonylglycyl-L-ornithyl-L-α-aspartyl-D-alanyl-L-α-aspartylglycyl-D-seryl-(3R)-3-methyl-L-α-glutamyl-(αS)-α,2-diamino-γ-oxobenzenebutanoic acid (13→4)-lactone]
Sa278 MIC [1]: 0.5 µg/mL and 1 µg/mL
C. diff MIC90 (Clostridium difficile): 4 µg/mL

CCCCCCOc1ccc(-c2ccc(C(=O)N[C@@H](Cc3c[nH]c4ccccc34)C(=O)N[C@H](CC(N)=O)C(=O)N[C@@H](CC(=O)O)C(=O)N[C@@H]3C(=O)NCC(=O)N[C@@H](CCCN)C(=O)N[C@@H](CC(=O)O)C(=O)N[C@H](C)C(=O)N[C@@H](CC(=O)O)C(=O)NCC(=O)N[C@H](CO)C(=O)N[C@@H]([C@H](C)CC(=O)O)C(=O)N[C@@H](CC(=O)c4ccccc4N)C(=O)O[C@@H]3C)cc2)cc1 [Compound 62]
Sa278 MIC [1]: 0.5 µg/mL
Efs312 MIC [2]: 2 µg/mL and 4 µg/mL
Efm384 MIC [3]: 1 µg/mL
Efs201 MIC [6, 7]: 0.25 µg/mL
Efm14 MIC [5, 7]: 0.5 µg/mL
C. diff MIC90 (Clostridium difficile): 2 µg/mL
